# Several values for one entry are separate records, joined by “and”; a condition that tells them apart may be missing. Equal entries are not always repeated.
# Legend:
# sRANKL = biological target: T1, sRANKL (Rattus norvegicus, UniProt Q9ESE2, D175N); test: STD NMR binding assay with sRANKL; details: 100 μM protein, 5 mM compound
# T1 construct: (1) sRANKL (rat 159-318 aa); His6-sumo (N, cleaved yes); made in house; host or cells: Escherichia coli BL21 (DE3)
# T1 sequence (Q9ESE2 159-318 D175N): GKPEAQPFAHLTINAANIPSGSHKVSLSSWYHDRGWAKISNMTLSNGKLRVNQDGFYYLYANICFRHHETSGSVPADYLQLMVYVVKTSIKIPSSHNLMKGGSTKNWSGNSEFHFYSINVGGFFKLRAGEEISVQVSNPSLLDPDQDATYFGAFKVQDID
# Description: (§1) For NMR studies, purified sRANKL or L-RANKL protein samples were buffer exchanged into PBS (Gbico, C10010500BT, pH7.4) using a Millipore spin column (1500 × g for 15 min at 4 °C, repeated six times, each time adding fresh PBS and discarding the flow-through). Protein concentration was determined using BCA method according to the procedure of Pierce^TM BCA Protein Assay Kit (Thermo Fisher Scientific). Compound S3-15 powder was dissolved in H2O as a concentration of 10 mM.
# (§2) Protein saturation transfer difference (STD) experiments were performed on Bruker Avance III 500 (500 MHz) spectrometer (Columbia University) at 300 K using triple-resonance cryogenic probes optimized for proton detection. All experiments were performed using an independent sample for each experimental measurement as a 500 μL sample in NMR tubes with 100 μM protein and […] S3-15 in final concentration. Uniformly, for STD assay all samples were contained 50 μL protein, 200 μL S3-15 (10 mM in H2O), and 250 μL D2O; for S3-15 two-dimensional spectra reference, samples were 50 μL PBS, 200 μL S3-15 (10 mM in H2O) and 250 μL D2O.
# L-RANKL = biological target: T2, L-RANKL (Rattus norvegicus, UniProt Q9ESE2, D175N); test: STD NMR binding assay with L-RANKL; details: 100 μM protein, 5 mM compound
# T2 construct: (3) mRANKL (sRANKL-GSGS-sRANKL, rat 159-318 aa); His6-sumo (N); made in house; host or cells: Escherichia coli BL21 (DE3)
# Description: as §1, §2
# [1] = biological target: mouse mRANKL and mouse OPG (Mus musculus, UniProt O35235); test: mRANKL-OPG binding, HEK 293T cells with full length mouse RANKL; format: cell-based
# Description: mRANKL-OPG: MC3T3-E1 cells were differentiated by osteoblast differentiation medium (Pythonbio, China) for 2 days. Then cells were exposed to 1 M NaCl for 5 minutes to remove endogenous OPG, washed once in PBS, and fixed with 70% ethanol for 5 minutes at 4 °C. Fixed cells were wash once by PBS and then exposed to PBS that containing 100 ng mouse OPG (Sino, China) or 100 ng mouse OPG with 1 μM S3-15 and incubated for an additional 30 min at 4 °C. Cell layers were washed 2 times with PBS and lysed with 1% triton in PBS. The concentration of OPG in cell lysates were measured with an OPG ELISA kit (USCN, China). Similar proceed were performed using HEK 293 T cells that transfer full length mouse RANKL or human RANKL.
# [2] = test system: NF-κB, MAPK and PI3K-AKT signaling; test: Western blotting of RANKL-RANK signaling in RAW264.7 cells; format: cell-based, mouse; details: RAW264.7, 5 μM
# Description: The mRNA expression level of S3-15 was measured by RT–qPCR as primary described. Total cellular RNA sample was prepared using RNAiso Plus, followed by reverse transcription with PrimeScript™ MixRT Master Mix reverse transcriptase kit. Then quantitative real-time PCR assays were performed with TB Green™ premix EX Taq™ II kit on an Applied Biosystems. […] signaling inhibiting effect was determined by western blotting. RAW264.7 cells were treated with 5 μM S3-15 with or without sRANKL (100 ng/mL) for 5, 10, 30 and 60 min after starved for 1 h. Then the cells were washed with cold PBS and lysed by RIPA Lysis Buffer. Cell lysates were then processed for Western Blotting analyses. Primary antibody binding was detected using rat secondary antibodies (1:5000) coupled with enhanced chemiluminescence (ECL) reagents (Thermo Scientific) and visualized on Tanon 5200. Primers used for qPCR and antibodies used for western blotting were seen supplementary materials for details.
# mature osteoclasts = test: Osteoclasts apoptotic activity assay; format: cell-based, mouse
# Description: Mature osteoclasts were generated according to “Primary cultures of BMMs and osteoclastogenesis assay”. Mature osteoclasts were treated with or without compounds for 24 h[53]. At the end of incubation, cells were fixed with 4% paraformaldehyde and applied TRAP-staining. Apoptosis and cell death was measured by in situ fluorescence staining with AnnexinV-FITC (Beyotime Biotechnology) and prodidium iodide or DAPI staining flowing by their instructions. TRAP-positive cells, Annexin V, PI, and DAPI were visualized by Leica fluorescence microscopic.
# OVX rats = test: Serum biochemical markers determination; format: in vivo, rat; set-up: TG / ALT / AST / ALP / GLU / TC / Ca / TBA / TBIL / BUN / CREA: unit not given here
# Source text: After treating with S3-15 for 12 weeks, rat serum was harvested and analyzed routine blood biochemical markers, including calcium (Ca), phosphorus (P), total cholesterol (TC), triglyceride (TG), glucose (Glu), aspartate aminotransferase (AST), alanine aminotransferase (ALT), alkaline phosphatase (ALP), total bile acid (TBIL), total bilirubin (TBA), creatinine (CREA), urea nitrogen (BUN). Ca, P, AST, ALT, ALP, CREA, and BUN were purchased from Wako Pure Chemical, Japan; Glu,TC, TG, TBIL, and TBA were purchased from Kehua Bio-engineering Co.LTD, China. Routine blood biochemical markers were examined with a Hitachi chemistry automated analyzer (Hitachi 7020, Japan) according to manufacturer’s instruction.
# OVX mice = test: Histological examination of femur (TRAP staining); format: in vivo, mouse
# Description: The mice left femur was fixed in paraformaldehyde for 72 h, demineralized using 10% Ethylenediamine tetra-acetic acid (EDTA-2Na) for 3 weeks, and then dehydrated with ethanol, clarified with xylene, and embedded with paraffin. Paraffin embedded tissue was sectioned on a rotary microtome. The sectioned tissues were stained with TRAP.
# [3] = serum, OVX rats, individual animals
# Sequence of mouse mRANKL and mouse OPG (O35235 whole entry): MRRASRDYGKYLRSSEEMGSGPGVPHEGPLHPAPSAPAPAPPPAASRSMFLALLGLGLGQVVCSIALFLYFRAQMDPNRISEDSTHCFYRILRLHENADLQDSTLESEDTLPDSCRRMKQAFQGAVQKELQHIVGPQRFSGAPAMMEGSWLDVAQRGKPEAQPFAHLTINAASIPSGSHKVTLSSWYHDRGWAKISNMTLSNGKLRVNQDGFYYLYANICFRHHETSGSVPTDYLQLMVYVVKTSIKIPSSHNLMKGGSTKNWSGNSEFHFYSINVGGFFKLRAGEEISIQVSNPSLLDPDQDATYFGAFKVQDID
# T2 sequence (Q9ESE2 with tags, fused parts or gaps D175N): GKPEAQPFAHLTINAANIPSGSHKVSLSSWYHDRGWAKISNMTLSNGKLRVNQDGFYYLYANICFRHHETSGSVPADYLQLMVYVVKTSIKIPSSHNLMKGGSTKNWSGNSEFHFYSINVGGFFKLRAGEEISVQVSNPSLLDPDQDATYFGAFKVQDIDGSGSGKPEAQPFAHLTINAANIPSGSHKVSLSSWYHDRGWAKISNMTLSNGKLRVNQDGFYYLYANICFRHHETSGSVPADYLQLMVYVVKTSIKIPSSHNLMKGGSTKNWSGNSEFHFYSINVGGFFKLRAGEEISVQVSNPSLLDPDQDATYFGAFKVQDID
structure (smiles),measurement,setting,value
CC(=O)/C(=N\Nc1ccccc1C(=O)O)C(=O)Nc1ccccn1 [S3-15],STD-NMR binding to sRANKL,sRANKL,binds to sRANKL
same,STD-NMR binding to L-RANKL (mRANKL),L-RANKL,low binding affinity
same,mouse mRANKL and mouse OPG binding,"[1]; 293T cells, 1 μM",no effects
same,mRANKL-OPG binding signal (fig. S4o),[1]; OPG+S3-15,0.9339 and 0.9921 and 0.6577
same,"MAPK signaling (phosphorylation of ERK, JNK, p38)",[2],abrogated MAPK signaling
same,"PI3K-AKT signaling (phosphorylation of PI3K, AKT)",[2],reduced PI3K-AKT signaling
same,"RANKL-induced NF-κB signaling (phosphorylation of IKKα, IκBα, p65)",[2],suppresses RANKL-induced NF-κB signaling
same,EC50,"mature osteoclasts; Mus musculus, Osteoclast, 24 h treatment, read-out: EC50, apoptosis of mature osteoclasts",0.55 µM
same,dead osteoclast quantification (fig. 6f),"mature osteoclasts; mature osteoclasts, vehicle 41, 55, 67",227 and 290 and 265
same,organ toxicity / routine blood examination,"OVX rats; rats, 12 weeks treatment",no organ toxicity in vivo
same,ALP,OVX rats; [3],35 and 77 and 34 and 39 and 60 and 23 and 42 and 48 and 49
same,ALT,OVX rats; [3],29 and 34 and 37 and 33 and 38 and 25 and 28 and 32 and 39
same,AST,OVX rats; [3],82 and 90 and 88 and 109 and 96 and 114 and 85 and 87 and 95
same,BUN,OVX rats; [3],5.99 and 5.28 and 6.41 and 6.31 and 5.6 and 5.72 and 5.71 and 5.18 and 6
same,CREA,OVX rats; [3],58.7 and 57.9 and 57 and 66.1 and 49.8 and 56.6 and 56.8 and 65.7 and 60.7
same,Ca,OVX rats; [3],2.46 and 2.39 and 2.41 and 2.43 and 2.15 and 2.33 and 2.34
same,GLU,OVX rats; [3],10.2096 and 9.028 and 12.7431 and 8.981 and 13.9764 and 7.763 and 10.2611 and 9.122 and 11.2914
same,TBA,OVX rats; [3],26.48 and 20.71 and 36.69 and 15.65 and 15.57 and 21.76 and 21.4 and 18.86 and 18.33
same,TBIL,OVX rats; [3],1.84 and 1.07 and 1.06 and 1.28 and 0.95 and 0.98 and 0.77 and 0.97 and 0.78
same,TC,OVX rats; [3],2.99 and 2.55 and 2.35 and 2.13 and 2.5 and 2.24 and 2.36 and 2.45
same,TG,OVX rats; [3],1.05 and 0.75 and 0.49 and 0.31 and 0.47 and 0.65 and 0.46 and 0.64
same,"numbers of osteoclast, histology",OVX mice,significantly decreased the numbers of osteoclast

# Source: article PMC9468151, “Identification of a binding site on soluble RANKL that can be targeted to inhibit soluble RANK-RANKL interactions and treat osteoporosis” (Nature Communications, 2022)
